# Results taken from ChEMBL document CHEMBL5036347, “Design of the naphthyl-diarylpyrimidines as potent non-nucleoside reverse transcriptase inhibitors (NNRTIs) via structure-based extension into the entrance channel” (Eur J Med Chem, 2021).
# Tested on: Human immunodeficiency virus 1
# Assay: Anti-HIV activity against HIV-1 IIIB infected in human MT4 cells assessed as reduction in virus-induced cytopathic effect incubated for 5 days by MTT assay
# Format: functional, organism-based
# Details: Human immunodeficiency virus 1, IIIB, MT4, 120 h
row,Compound,EC50
1,COc1cc2cc(C#N)ccc2c(OC)c1Oc1cc(NCCCCO)nc(Nc2ccc(C#N)cc2)n1,0.018 µM
2,COc1cc2cc(C#N)ccc2c(OC)c1Oc1cc(NC2CCOC2)nc(Nc2ccc(C#N)cc2)n1 (configuration not stated),0.013 µM
3,COc1cc2cc(C#N)ccc2c(OC)c1Oc1cc(NCC(O)CO)nc(Nc2ccc(C#N)cc2)n1 (configuration not stated),0.1 µM

# Tested on: Human immunodeficiency virus 2
# Assay: Anti-HIV activity against HIV2 ROD infected in human MT4 cells assessed as reduction in virus-induced cytopathic effect incubated for 5 days by MTT assay
# Format: functional, organism-based
# Details: Human immunodeficiency virus 2, ROD, MT4, 120 h
row,Compound,EC50
1,COc1cc2cc(C#N)ccc2c(OC)c1Oc1cc(NCCCCO)nc(Nc2ccc(C#N)cc2)n1,4.93 µM
2,COc1cc2cc(C#N)ccc2c(OC)c1Oc1cc(NC2CCOC2)nc(Nc2ccc(C#N)cc2)n1 (configuration not stated),> 1000 µM
3,COc1cc2cc(C#N)ccc2c(OC)c1Oc1cc(NCC(O)CO)nc(Nc2ccc(C#N)cc2)n1 (configuration not stated),> 1000 µM

# Tested on: not listed separately
# Assay: Cytotoxicity against human MT4 cells assessed as reduction in cell viability incubated for 5 days by MTT assay
# Format: cell-based
# Details: human, MT4 cells; time 5 day
row,Compound,CC50 at 120 h
1,COc1cc2cc(C#N)ccc2c(OC)c1Oc1cc(NCCCCO)nc(Nc2ccc(C#N)cc2)n1,39.1 µM
2,COc1cc2cc(C#N)ccc2c(OC)c1Oc1cc(NC2CCOC2)nc(Nc2ccc(C#N)cc2)n1 (configuration not stated),> 125 µM
3,COc1cc2cc(C#N)ccc2c(OC)c1Oc1cc(NCC(O)CO)nc(Nc2ccc(C#N)cc2)n1 (configuration not stated),29.5 µM

# Tested on: Human immunodeficiency virus 1
# Assay: Antiviral activity against HIV1 harboring reverse transcriptase L100I mutant infected in human MT4 cells assessed as protection against virus-induced cytopathic effect incubated for 5 days by MTT assay
# Format: functional, organism-based
# Details: Human immunodeficiency virus 1, MT4, 120 h
row,Compound,EC50
1,COc1cc2cc(C#N)ccc2c(OC)c1Oc1cc(NCCCCO)nc(Nc2ccc(C#N)cc2)n1,0.3 µM
2,COc1cc2cc(C#N)ccc2c(OC)c1Oc1cc(NC2CCOC2)nc(Nc2ccc(C#N)cc2)n1 (configuration not stated),0.23 µM
3,COc1cc2cc(C#N)ccc2c(OC)c1Oc1cc(NCC(O)CO)nc(Nc2ccc(C#N)cc2)n1 (configuration not stated),1.04 µM

# Tested on: Human immunodeficiency virus 1
# Assay: Antiviral activity against HIV1 harboring reverse transcriptase K103N mutant infected in human MT4 cells assessed as protection against virus-induced cytopathic effect incubated for 5 days by MTT assay
# Format: functional, organism-based
# Details: Human immunodeficiency virus 1, MT4, 120 h
row,Compound,EC50
1,COc1cc2cc(C#N)ccc2c(OC)c1Oc1cc(NCCCCO)nc(Nc2ccc(C#N)cc2)n1,0.02 µM
2,COc1cc2cc(C#N)ccc2c(OC)c1Oc1cc(NC2CCOC2)nc(Nc2ccc(C#N)cc2)n1 (configuration not stated),0.028 µM
3,COc1cc2cc(C#N)ccc2c(OC)c1Oc1cc(NCC(O)CO)nc(Nc2ccc(C#N)cc2)n1 (configuration not stated),0.093 µM

# Tested on: Human immunodeficiency virus 1
# Assay: Antiviral activity against HIV1 harboring reverse transcriptase Y181C mutant infected in human MT4 cells assessed as protection against virus-induced cytopathic effect incubated for 5 days by MTT assay
# Format: functional, organism-based
# Details: Human immunodeficiency virus 1, MT4, 120 h
row,Compound,EC50
1,COc1cc2cc(C#N)ccc2c(OC)c1Oc1cc(NCCCCO)nc(Nc2ccc(C#N)cc2)n1,0.19 µM
2,COc1cc2cc(C#N)ccc2c(OC)c1Oc1cc(NC2CCOC2)nc(Nc2ccc(C#N)cc2)n1 (configuration not stated),0.085 µM
3,COc1cc2cc(C#N)ccc2c(OC)c1Oc1cc(NCC(O)CO)nc(Nc2ccc(C#N)cc2)n1 (configuration not stated),0.73 µM

# Tested on: Human immunodeficiency virus 1
# Assay: Antiviral activity against HIV1 harboring reverse transcriptase Y188L mutant infected in human MT4 cells assessed as protection against virus-induced cytopathic effect incubated for 5 days by MTT assay
# Format: functional, organism-based
# Details: Human immunodeficiency virus 1, MT4, 120 h
row,Compound,EC50
1,COc1cc2cc(C#N)ccc2c(OC)c1Oc1cc(NCCCCO)nc(Nc2ccc(C#N)cc2)n1,0.74 µM
2,COc1cc2cc(C#N)ccc2c(OC)c1Oc1cc(NC2CCOC2)nc(Nc2ccc(C#N)cc2)n1 (configuration not stated),0.56 µM
3,COc1cc2cc(C#N)ccc2c(OC)c1Oc1cc(NCC(O)CO)nc(Nc2ccc(C#N)cc2)n1 (configuration not stated),1.26 µM

# Tested on: Human immunodeficiency virus 1
# Assay: Antiviral activity against HIV1 harboring reverse transcriptase E138K mutant infected in human MT4 cells assessed as protection against virus-induced cytopathic effect incubated for 5 days by MTT assay
# Format: functional, organism-based
# Details: Human immunodeficiency virus 1, MT4, 120 h
row,Compound,EC50
1,COc1cc2cc(C#N)ccc2c(OC)c1Oc1cc(NCCCCO)nc(Nc2ccc(C#N)cc2)n1,0.047 µM
2,COc1cc2cc(C#N)ccc2c(OC)c1Oc1cc(NC2CCOC2)nc(Nc2ccc(C#N)cc2)n1 (configuration not stated),0.047 µM
3,COc1cc2cc(C#N)ccc2c(OC)c1Oc1cc(NCC(O)CO)nc(Nc2ccc(C#N)cc2)n1 (configuration not stated),0.28 µM

# Tested on: Human immunodeficiency virus 1
# Assay: Antiviral activity against HIV1 harboring reverse transcriptase F227L/V106A mutant infected in human MT4 cells assessed as protection against virus-induced cytopathic effect incubated for 5 days by MTT assay
# Format: functional, organism-based
# Details: Human immunodeficiency virus 1, MT4, 120 h
row,Compound,EC50
1,COc1cc2cc(C#N)ccc2c(OC)c1Oc1cc(NCCCCO)nc(Nc2ccc(C#N)cc2)n1,2.81 µM
2,COc1cc2cc(C#N)ccc2c(OC)c1Oc1cc(NC2CCOC2)nc(Nc2ccc(C#N)cc2)n1 (configuration not stated),2.01 µM
3,COc1cc2cc(C#N)ccc2c(OC)c1Oc1cc(NCC(O)CO)nc(Nc2ccc(C#N)cc2)n1 (configuration not stated),3.11 µM

# Tested on: not listed separately
# Assay: Resistance fold, ratio of EC50 for HIV1 harboring reverse transcriptase Y181C mutant […] to EC50 for wild type HIV1 […]
# Format: functional
# Details: not given
row,Compound,Ratio EC50
1,COc1cc2cc(C#N)ccc2c(OC)c1Oc1cc(NCCCCO)nc(Nc2ccc(C#N)cc2)n1,11
2,COc1cc2cc(C#N)ccc2c(OC)c1Oc1cc(NC2CCOC2)nc(Nc2ccc(C#N)cc2)n1 (configuration not stated),7
3,COc1cc2cc(C#N)ccc2c(OC)c1Oc1cc(NCC(O)CO)nc(Nc2ccc(C#N)cc2)n1 (configuration not stated),7

# Tested on: not listed separately
# Assay: Resistance fold, ratio of EC50 for HIV1 harboring reverse transcriptase L100I mutant […] to EC50 for wild type HIV1 […]
# Format: functional
# Details: not given
row,Compound,Ratio EC50
1,COc1cc2cc(C#N)ccc2c(OC)c1Oc1cc(NCCCCO)nc(Nc2ccc(C#N)cc2)n1,17
2,COc1cc2cc(C#N)ccc2c(OC)c1Oc1cc(NC2CCOC2)nc(Nc2ccc(C#N)cc2)n1 (configuration not stated),19
3,COc1cc2cc(C#N)ccc2c(OC)c1Oc1cc(NCC(O)CO)nc(Nc2ccc(C#N)cc2)n1 (configuration not stated),17

# Tested on: not listed separately
# Assay: Resistance fold, ratio of EC50 for HIV1 harboring reverse transcriptase K103N mutant […] to EC50 for wild type HIV1 […]
# Format: functional
# Details: not given
row,Compound,Ratio EC50
1,COc1cc2cc(C#N)ccc2c(OC)c1Oc1cc(NCCCCO)nc(Nc2ccc(C#N)cc2)n1,1
2,COc1cc2cc(C#N)ccc2c(OC)c1Oc1cc(NC2CCOC2)nc(Nc2ccc(C#N)cc2)n1 (configuration not stated),1
3,COc1cc2cc(C#N)ccc2c(OC)c1Oc1cc(NCC(O)CO)nc(Nc2ccc(C#N)cc2)n1 (configuration not stated),1

# Tested on: Human immunodeficiency virus 1
# Assay: Antiviral activity against HIV1 harboring reverse transcriptase K103N/Y181C double mutant infected in human MT4 cells assessed as protection against virus-induced cytopathic effect incubated for 5 days by MTT assay
# Format: functional, organism-based
# Details: Human immunodeficiency virus 1, MT4, 120 h
row,Compound,EC50
1,COc1cc2cc(C#N)ccc2c(OC)c1Oc1cc(NCCCCO)nc(Nc2ccc(C#N)cc2)n1,0.55 µM
2,COc1cc2cc(C#N)ccc2c(OC)c1Oc1cc(NC2CCOC2)nc(Nc2ccc(C#N)cc2)n1 (configuration not stated),0.64 µM
3,COc1cc2cc(C#N)ccc2c(OC)c1Oc1cc(NCC(O)CO)nc(Nc2ccc(C#N)cc2)n1 (configuration not stated),0.93 µM

# Tested on: not listed separately
# Assay: Selectivity index, ratio of CC50 for cytotoxicity against human MT4 cells to EC50 of Anti-HIV activity against HIV-1 IIIB infected in human MT4
# Format: toxicity, cell-based
# Details: read-out: Selectivity Index
row,Compound,selectivity ratio
1,COc1cc2cc(C#N)ccc2c(OC)c1Oc1cc(NCCCCO)nc(Nc2ccc(C#N)cc2)n1,2190
2,COc1cc2cc(C#N)ccc2c(OC)c1Oc1cc(NC2CCOC2)nc(Nc2ccc(C#N)cc2)n1 (configuration not stated),> 19000
3,COc1cc2cc(C#N)ccc2c(OC)c1Oc1cc(NCC(O)CO)nc(Nc2ccc(C#N)cc2)n1 (configuration not stated),293

# Tested on: not listed separately
# Assay: Resistance fold, ratio of EC50 for HIV1 harboring reverse transcriptase Y188L mutant […] to EC50 for wild type HIV1 […]
# Format: functional
# Details: not given
row,Compound,Ratio EC50
1,COc1cc2cc(C#N)ccc2c(OC)c1Oc1cc(NCCCCO)nc(Nc2ccc(C#N)cc2)n1,41
2,COc1cc2cc(C#N)ccc2c(OC)c1Oc1cc(NC2CCOC2)nc(Nc2ccc(C#N)cc2)n1 (configuration not stated),43
3,COc1cc2cc(C#N)ccc2c(OC)c1Oc1cc(NCC(O)CO)nc(Nc2ccc(C#N)cc2)n1 (configuration not stated),13

# Tested on: not listed separately
# Assay: Resistance fold, ratio of EC50 for HIV1 harboring reverse transcriptase E138K mutant […] to EC50 for wild type HIV1 […]
# Format: functional
# Details: not given
row,Compound,Ratio EC50
1,COc1cc2cc(C#N)ccc2c(OC)c1Oc1cc(NCCCCO)nc(Nc2ccc(C#N)cc2)n1,3
2,COc1cc2cc(C#N)ccc2c(OC)c1Oc1cc(NC2CCOC2)nc(Nc2ccc(C#N)cc2)n1 (configuration not stated),2
3,COc1cc2cc(C#N)ccc2c(OC)c1Oc1cc(NCC(O)CO)nc(Nc2ccc(C#N)cc2)n1 (configuration not stated),3

# Tested on: not listed separately
# Assay: Resistance fold, ratio of EC50 for HIV1 harboring reverse transcriptase F227L/V106A double mutant […] to EC50 for wild type HIV1 […]
# Format: functional
# Details: not given
row,Compound,Ratio EC50
1,COc1cc2cc(C#N)ccc2c(OC)c1Oc1cc(NCCCCO)nc(Nc2ccc(C#N)cc2)n1,158
2,COc1cc2cc(C#N)ccc2c(OC)c1Oc1cc(NC2CCOC2)nc(Nc2ccc(C#N)cc2)n1 (configuration not stated),156
3,COc1cc2cc(C#N)ccc2c(OC)c1Oc1cc(NCC(O)CO)nc(Nc2ccc(C#N)cc2)n1 (configuration not stated),31

# Tested on: not listed separately
# Assay: Resistance fold, ratio of EC50 for HIV1 harboring reverse transcriptase K103N/Y181C double mutant […] to EC50 for wild type HIV1 […]
# Format: functional
# Details: not given
row,Compound,Ratio EC50
1,COc1cc2cc(C#N)ccc2c(OC)c1Oc1cc(NCCCCO)nc(Nc2ccc(C#N)cc2)n1,31
2,COc1cc2cc(C#N)ccc2c(OC)c1Oc1cc(NC2CCOC2)nc(Nc2ccc(C#N)cc2)n1 (configuration not stated),49
3,COc1cc2cc(C#N)ccc2c(OC)c1Oc1cc(NCC(O)CO)nc(Nc2ccc(C#N)cc2)n1 (configuration not stated),9

# Target: Human immunodeficiency virus type 1 reverse transcriptase (Human immunodeficiency virus 1, UniProt Q72547)
# Assay: Inhibition of wild type HIV1 reverse transcriptase using oligo(dT)16 as primer measured after 40 mins by picogreen-dye based spectrofluorimetric analysis
# Details: not given
row,Compound,IC50
1,COc1cc2cc(C#N)ccc2c(OC)c1Oc1cc(NCCCCO)nc(Nc2ccc(C#N)cc2)n1,0.08 µM
2,COc1cc2cc(C#N)ccc2c(OC)c1Oc1cc(NC2CCOC2)nc(Nc2ccc(C#N)cc2)n1 (configuration not stated),0.18 µM
3,COc1cc2cc(C#N)ccc2c(OC)c1Oc1cc(NCC(O)CO)nc(Nc2ccc(C#N)cc2)n1 (configuration not stated),0.08 µM
